Among the data in US11596639B2, “Substituted indole Mcl-1 inhibitors” (Vanderbilt University, priority 2016, dated 2023) are Ki and GI50 values, retold here.

For one experiment, the target named is Mcl-1 (Homo sapiens (Human), UniProt Q07820). Kind of experiment: Fluorescence polarization anisotropy (FPA) competition assay, FITC-Bak or FITC-Bim BH3 peptide. Format: binding. The note with it: read-out: Ki for Inhibition of Mcl-1 by FPA assay.
Experiment [1] concerns H929 human cancer cell lines. The experiment in a line: Cellular viability / proliferation (Cell TiterGlo, 72 h). Type of experiment: cell-based. A digest of the protocol: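 Plating is at 1,000 cells/well in 10% FBS medium; after 24 h, compound is added as a 2-fold series starting at 50 μM with under 1% DMSO.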
Setting [2] is: Homo sapiens, NCI-H929, 72 h, read-out: GI50 on cellular proliferation of H929 human cancer cell lines, H929 cells, 72 h, Cell TiterGlo, 10% FBS.
Where [3] appears, read: read-out: GI50 on cellular proliferation of H929 human cancer cell lines, H929 cells, 72 h, Cell TiterGlo, 10% FBS.

Read-outs that look alike come from different tables or passages of the source. Some results are limits rather than exact numbers.

Sequence of Mcl-1 (Q07820 172-327): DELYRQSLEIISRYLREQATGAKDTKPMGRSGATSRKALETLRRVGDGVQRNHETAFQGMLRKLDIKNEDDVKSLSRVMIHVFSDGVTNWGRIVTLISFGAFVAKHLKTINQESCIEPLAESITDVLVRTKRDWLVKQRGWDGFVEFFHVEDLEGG

Regarding `Cc1cc(OCCCc2c3n(c4c(-c5c(C)nn(C)c5C)c(Cl)ccc24)CCCN(c2cccc4c(-c5nn[nH]n5)cn(C)c24)C3=O)cc(C)c1Cl` [Example 15, 8-Chloro-11-[3-(4-chloro-3,5-dimethyl-phenoxy)propyl]-2-[1-methyl-3-(2H-tetrazol-5-yl)indol-7-yl]-7-(1,3,5-trimethylpyrazol-4-yl)-4,5-dihydro-3H-[1,4]diazepino[1,2-a]indol-1-one], the inhibition constant (Ki) on Mcl-1 came out at 2.2 nM. Further, the GI50 in experiment [1] (setting [2]) came out at 11000 nM.
Regarding `Cc1cc(OCCCc2c3n(c4c(-c5c(C)nn(C)c5C)c(Cl)ccc24)[C@H](C)CN(c2cccc4c2cc(-c2nn[nH]n2)n4C)C3=O)cc(C)c1Cl` [Example 307, (4R)-7-chloro-10-[3-(4-chloro-3,5-dimethyl-phenoxy)propyl]-4-methyl-2-[1-methyl-2-(2H-tetrazol-5-yl)indol-4-yl]-6-(1,3,5-trimethylpyrazol-4-yl)-3,4-dihydropyrazino[1,2-a]indol-1-one], the Ki on Mcl-1 was determined as 1.3 nM. In experiment [1] (setting [2]), the GI50 is 3500 nM.
Taken in the same sequence, the figures for `Cc1cc(N2C[C@@H](C)n3c(c(CCCOc4cc(C)c(Cl)c(C)c4)c4ccc(Cl)c(-c5c(C)ncnc5C)c43)C2=O)c2c(c1)c(C)c(C(=O)O)n2C` [Example 339, (R)-7-(7-Chloro-10-(3-(4-chloro-3,5-dimethylphenoxy)propyl)-6-(4,6-dimethylpyrimidin-5-yl)-4-methyl-1-oxo-3,4-dihydropyrazino[1,2-a]indol-2(1H)-yl)-1,3,5-trimethyl-1H-indole-2-carboxylic acid] were below 1 nM and 320 nM.
Take `Cc1cc(OCCCc2c3n(c4c(-c5c(C)nn(C)c5C)c(Cl)ccc24)[C@H](C)CN(c2cc(C(=O)O)cc4c2cnn4C)C3=O)cc(C)c1Cl` [Example 84, (R)-4-(7-chloro-10-(3-(4-chloro-3,5-dimethylphenoxy)propyl)-4-methyl-1-oxo-6-(1,3,5-trimethyl-1H-pyrazol-4-yl)-3,4-dihydropyrazino[1,2-a]indol-2(1H)-yl)-1-methyl-1H-indazole-6-carboxylic acid]: the Ki on Mcl-1 was below 1 nM. In addition, the GI50 in experiment [1] (setting [2]) turned out to be 1200 nM.
On the same counts, the results for `Cc1cc(OCCCc2c3n(c4c(-c5c(C)nn(C)c5C)c(Cl)ccc24)[C@H](C)CN(c2nn(C)c4cc(C(=O)O)ccc24)C3=O)cc(C)c1Cl` [Example 48, (R)-3-(7-chloro-10-(3-(4-chloro-3,5-dimethylphenoxy)propyl)-4-methyl-1-oxo-6-(1,3,5-trimethyl-1H-pyrazol-4-yl)-3,4-dihydropyrazino[1,2-a]indol-2(1H)-yl)-1-methyl-1H-indazole-6-carboxylic acid] are below 1 nM and 800 nM.
For the molecule `COC(=O)c1ccc2c(c1)c(N1C[C@@H](C)n3c(c(CCCOc4cc(C)c(Cl)c(C)c4)c4ccc(Cl)c(-c5c(C)nn(C)c5C)c43)C1=O)cn2C` (single isomer, unassigned) [Example 207], on Mcl-1, the inhibition constant (Ki) was below 1 nM. The GI50 in experiment [1] (setting [3]) came out at 750 nM.
As for `Cc1cc(OCCCc2c3n(c4c(-c5c(C)nn(C)c5C)c(Cl)ccc24)[C@H](C)CN(c2cccc4cccc(C(=O)O)c24)C3=O)cc(C)c1Cl` [Example 191, (R)-8-(7-Chloro-10-(3-(4-chloro-3,5-dimethylphenoxy)propyl)-4-methyl-1-oxo-6-(1,3,5-trimethyl-1H-pyrazol-4-yl)-3,4-dihydropyrazino[1,2-a]indol-2(1H)-yl)-1-naphthoic acid], the inhibitory constant (Ki) at Mcl-1 was below 1 nM. Besides, the GI50 in experiment [1] (setting [2]) stood at 3200 nM.
On the same counts, the results for `Cc1cc(OCCCc2c3n(c4c(-c5c(C)ncnc5C)c(Cl)ccc24)CCCN(c2cn(C)c4ccc(C(=O)O)cc24)C3=O)cc(C)c1Cl` [Example 156, 3-[8-Chloro-11-[3-(4-chloro-3,5-dimethyl-phenoxy)propyl]-7-(4,6-dimethylpyrimidin-5-yl)-1-oxo-4,5-dihydro-3H-[1,4]diazepino[1,2-a]indol-2-yl]-1-methyl-indole-5-carboxylic acid] are below 1 nM and 260 nM.
`COc1ccc(N2C[C@@H](C)n3c(c(CCCOc4cc(C)c(Cl)c(C)c4)c4ccc(Cl)c(-c5c(C)nn(C)c5C)c43)C2=O)c2c1cc(C(=O)O)n2C` [Example 192, (R)-7-(7-Chloro-10-(3-(4-chloro-3,5-dimethylphenoxy)propyl)-4-methyl-1-oxo-6-(1,3,5-trimethyl-1H-pyrazol-4-yl)-3,4-dihydropyrazino[1,2-a]indol-2(1H)-yl)-4-methoxy-1-methyl-1H-indole-2-carboxylic acid]: the Ki on Mcl-1 is below 1 nM. For the same molecule, in experiment [1] (setting [2]), the GI50 is below 200 nM.
For the molecule `Cc1cc(OCCCc2c3n(c4c(-c5c(C)nn(C)c5C)c(Cl)ccc24)[C@H](C)CN(c2cc(Cl)cc4c(C(=O)O)cn(C)c24)C3=O)cc(C)c1Cl` [Example 449, (R)-5Chloro-7-(7-chloro-10-(3-(4-chloro-3,5-dimethylphenoxy)propyl)-4-methyl-1-oxo-6-(1,3,5-trimethyl-1H-pyrazol-4-yl)-3,4-dihydropyrazino[1,2-a]indol-2(1H)-yl)-1-methyl-1H-indole-3-carboxylic acid], the Ki at Mcl-1 came out at 2.6 nM. For the same molecule, the GI50 in experiment [1] (setting [2]) worked out at 1200 nM.
Take `Cc1cc(OCCCc2c3n(c4c(-c5c(C)nn(C)c5C)c(Cl)ccc24)[C@H](C)CN(c2cccc4c(C(=O)O)cn(C)c24)C3=O)cc(C)c1Cl` [Example 69, (R)-7-(7-Chloro-10-(3-(4-chloro-3,5-dimethylphenoxy)propyl)-4-methyl-1-oxo-6-(1,3,5-trimethyl-1H-pyrazol-4-yl)-3,4-dihydropyrazino[1,2-a]indol-2(1H)-yl)-1-methyl-1H-indole-3-carboxylic acid]: the Ki at Mcl-1 is below 1 nM. Also, the GI50 in experiment [1] (setting [3]) was below 200 nM.
In the case of `Cc1cc(N2C[C@@H](C)n3c(c(CCCOc4cc(C)c(Cl)c(C)c4)c4ccc(Cl)c(-c5c(C)nn(C)c5C)c43)C2=O)c2c(c1)cc(C(=O)O)n2CC1CCN(C)C1` (stereo partly drawn) [Example 330, 7-((R)-7-Chloro-10-(3-(4-chloro-3,5-dimethylphenoxy)propyl)-4-methyl-1-oxo-6-(1,3,5-trimethyl-1H-pyrazol-4-yl)-3,4-dihydropyrazino[1,2-a]indol-2(1H)-yl)-5-methyl-1-((1-methylpyrrolidin-3-yl)methyl)-1H-indole-2-carboxylic acid], the Ki on Mcl-1 stood at 1.3 nM. Besides, the GI50 in experiment [1] (setting [2]) came out at 2300 nM.
On to `COCCn1c(C(=O)O)cc2cc(C)cc(N3C[C@@H](C)n4c(c(CCCOc5cc(C)c(Cl)c(C)c5)c5ccc(Cl)c(-c6c(C)nn(C)c6C)c54)C3=O)c21` [Example 470, (R)-7-(7-Chloro-10-(3-(4-chloro-3,5-dimethylphenoxy)propyl)-4-methyl-1-oxo-6-(1,3,5-trimethyl-1H-pyrazol-4-yl)-3,4-dihydropyrazino[1,2-a]indol-2(1H)-yl)-1-(2-methoxyethyl)-5-methyl-1H-indole-2-carboxylic acid], for which, at Mcl-1, the Ki is below 1 nM. Further, the GI50 in experiment [1] (setting [2]) was below 200 nM.
With `Cc1ccnc(Cn2c(C(=O)O)cc3cccc(N4C[C@@H](C)n5c(c(CCCOc6cc(C)c(Cl)c(C)c6)c6ccc(Cl)c(-c7c(C)nn(C)c7C)c65)C4=O)c32)c1` [Example 371, (R)-7-(7-Chloro-10-(3-(4-chloro-3,5-dimethylphenoxy)propyl)-4-methyl-1-oxo-6-(1,3,5-trimethyl-1H-pyrazol-4-yl)-3,4-dihydropyrazino[1,2-a]indol-2(1H)-yl)-1-((4-methylpyridin-2-yl)methyl)-1H-indole-2-carboxylic acid], the Ki on Mcl-1 is below 1 nM. Also, the GI50 in experiment [1] (setting [2]) turned out to be 300 nM.
